Assay results published in PMC9917735, “Optimization of the Hemolysis Assay for the Assessment of Cytotoxicity” (International Journal of Molecular Sciences, 2023).
Read-outs that look alike come from different tables or passages of the source. No end group written: not given here.

Tests used:
[1] = system: washed human erythrocytes; test: Hemolysis assay, washed human erythrocytes
human whole blood = settings: human whole blood, 60 min 37 °C; for Calculated hemolysis ratio: peptides 100 μM, neg. PBS, 3 x 2 replicates
[2] = system: washed human erythrocytes; test: Flow cytometry of treated erythrocytes with live/dead amine-reactive stain; assay type: cell-based; settings: washed human erythrocytes treated 60 minutes, AMPs 100 μM, amine-reactive dye 488, flow cytometry 533/30 nm
Method: Briefly, a 1% washed erythrocyte solution was diluted to ~10^5 cells/mL and 0.4% Trypan blue (1:1 ratio) was added before 10 μL of the stained cell suspension was added to the Countess cell counting chamber slide. After a 30 s incubation, the slide was inserted into the instrument for automatic cell counting.
The Countess II automated cell counter (see above) was used to adjust the negative control sample to ~10^5 cells/mL and to subsequently dilute all samples by the same factor. Then, 0.5 μL of live/dead amine-reactive dye 488 (Fisher Scientific, Waltham, MA, USA) was added to 0.5 mL cell suspension and incubated for 30 min protected from light. Subsequently, the samples were washed twice with PBS pH 7 containing 1% bovine serum albumin (BSA), and finally resuspended in PBS pH 7 with 1% BSA. Cells were next counted, and the fluorescence measured using the 533/30 nm filter in an Accuri C6 flow cytometer (BD Biosciences, Franklin Lakes, NJ, USA).

mouse erythrocytes = settings: Table 1, 1% erythrocytes, 100 µM
Text: (§1) Cytotoxicity studies are important during characterization of novel compounds or materials intended for interactions within human biological systems in vivo. Evaluation of the extent to which the compound induces disruption of the membrane of erythrocytes (red blood cells), thereby causing release of cellular content, often constitutes an initial step in such cytotoxicity assessments. The assay used in this context is generally referred to as the hemolysis assay, which has the advantages of being cheap, accessible, and simple to perform. Blood is drawn from a human or an animal, and next, the washed erythrocytes are incubated together with the compound or material under investigation. If the compound causes hemolysis, hemoglobin (along with other cellular constituents) will be released into the supernatant.
(§2) Blood from mice, rats, and rabbits was provided by the Department of Comparative Medicine at Oslo University Hospital (Marianne Aannestad). For mice and rats, the blood was collected from the heart by using 25 G and 21 G needles, respectively, whereas for rabbits, the blood was collected by free bleed through the ear using a yellow neoflon (24 G). All animals were wild type and anesthetized prior to the procedure.
(§3) All blood was collected in Lithium Heparin tubes 4 mL (Greiner Bio-One, Kremsmünster, Austria) or Coagulation sodium citrate 3.2% tubes 3 mL (Greiner Bio-One).
(§4) AMP 2 contained an N-terminal hexanoic acid moiety, whereas all peptides contained amidated C-termini. These three peptides were synthesized by Genscript Inc. (Piscataway, NJ, USA), and stock solutions of 1 mg/mL were made from the purchased powders. […] All peptides were diluted to yield a 100 μM final concentration in the hemolysis assays.
(§5) Triton X-100 (T8787) and Tween-20 (P2287) detergents were purchased from Sigma Aldrich and diluted to obtain 10% stock solutions by weighing (w/v). A sodium Dodecyl Sulfate (SDS) 10% solution was purchased from Invitrogen (Waltham, MA, USA, 15553027). All subsequent dilutions annotated in figures were made from these stocks.
(§6) As soon as possible after phlebotomy, the blood samples were centrifuged at 1700× g for 5 min. The supernatant was removed by aspiration and 2 mL of PBS pH 7 was added. The washing step was repeated three times or until the supernatant was clear. After final aspiration, the remaining pellet was diluted 1:100 in PBS pH 7 to obtain a 1% erythrocyte suspension (or 1:100, 1:50, and 1:20 for assays testing the effect of erythrocyte concentration). For experiments using whole blood, the washing steps were not performed, but downstream experimentation was identical. For experiments performed with 96-well plates, 50 μL of test compound, water, or detergent were mixed with 50 μL of blood sample (1% erythrocyte suspension or whole blood). For experiments using larger volumes, 250 μL of test compound, water, or detergent were mixed with 250 μL blood sample in an Eppendorf tube. Samples were subsequently incubated at 37 °C for 60 min (or 15, 30, 60, 90, or 120 min for assays evaluating the effect of incubation time). After incubation, the plates/tubes were centrifuged at 1700× g for 5 min, and then 50 μL of the supernatants were transferred to transparent, flat-bottom 96-well plates (Anicrin, A013418). Finally, absorption was measured at 405, 530, and 570 nm in a Victor Nivo Multimode microplate reader (Perkin Elmer, Waltham, MA, USA).

rat erythrocytes = settings: Table S4: washed rat erythrocytes, OD 405 nm, AMPs 100 μM, 1 hour 37 °C, pos. 10% Triton X-100, neg. PBS; 3 x 2 replicates
Text: as §1, §2, §3, §4, §5, §6

rabbit erythrocytes = settings: Table S4: washed rabbit erythrocytes, OD 405 nm, AMPs 100 μM, 1 hour 37 °C, pos. 10% Triton X-100, neg. PBS; 3 x 2 replicates
Text: as §1, §2, §3, §4, §5, §6

rabbit whole blood = settings: cf. Tables S3 and S4; 100 μM
Text: as §1, §2, §3, §4, §5, §6

[3] = cited from earlier work
Method: OD measurements of human whole blood treated with hemolyzing agents or AMPs at 405 nm (A), 530 nm (B), and 570 nm (C) were recorded (Figure 6) and HRs calculated (Table 5). For comparison, we also included the two previously well-characterized AMPs melittin and polymyxin B, which exert high and low cytotoxicity, respectively. […] From 530 and 570 nm measurements, the expected conce ...

[4] = 10% detergent, highest absorbance
[5] = human individual # 1, 1% erythrocytes, AMPs 100 µM, 60 min 37 °C, 405 nm, pos. 10% Triton X, neg. PBS, 3 x 2 replicates
[6] = human individual # 2, 1% erythrocytes, AMPs 100 µM, 60 min 37 °C, 405 nm, pos. 10% Triton X, neg. PBS, 3 x 2 replicates
[7] = human individual # 3, 1% erythrocytes, AMPs 100 µM, 60 min 37 °C, 405 nm, pos. 10% Triton X, neg. PBS, 3 x 2 replicates
[8] = human individual # 4, 1% erythrocytes, AMPs 100 µM, 60 min 37 °C, 405 nm, pos. 10% Triton X, neg. PBS, 3 x 2 replicates
[9] = human individual # 5, 1% erythrocytes, AMPs 100 µM, 60 min 37 °C, 405 nm, pos. 10% Triton X, neg. PBS, 3 x 2 replicates
[10] = human individual # 6, 1% erythrocytes, AMPs 100 µM, 60 min 37 °C, 405 nm, pos. 10% Triton X, neg. PBS, 3 x 2 replicates
[11] = human individual # 7, 1% erythrocytes, AMPs 100 µM, 60 min 37 °C, 405 nm, pos. 10% Triton X, neg. PBS, 3 x 2 replicates
[12] = human individual # 8, 1% erythrocytes, AMPs 100 µM, 60 min 37 °C, 405 nm, pos. 10% Triton X, neg. PBS, 3 x 2 replicates
[13] = human individual # 9, 1% erythrocytes, AMPs 100 µM, 60 min 37 °C, 405 nm, pos. 10% Triton X, neg. PBS, 3 x 2 replicates
[14] = human individual # 10, 1% erythrocytes, AMPs 100 µM, 60 min 37 °C, 405 nm, pos. 10% Triton X, neg. PBS, 3 x 2 replicates
[15] = OD 405 nm (signal saturated), pos. 10% SDS
[16] = OD 570 nm, pos. 10% Triton X-100 (table title; text says 10% SDS)

Compound: CCCCCCCCCCCCOS(=O)(=O)[O-].[Na+] [SDS, Sodium Dodecyl Sulfate, reference compound]
- Peak OD of free hemoglobin ([1]; at 0.02% detergent, human erythrocytes, decreases at higher concentrations (Figure S3)): 0,8
- Absorbance of free hemoglobin at 530 nm (human whole blood; [4]): 2.2
- Absorbance of free hemoglobin at 570 nm (human whole blood; [4]): 1.7

Compound: O [dH2O, distilled water]
- Calculated hemolysis ratio ([1]; 1% washed human erythrocytes, OD 530 nm, peptides 100 μM, 60 min 37 °C, pos. 10% Triton X-100, neg. PBS, 3 x 2 replicates): 67.6 ± 8.7%
- Calculated Hemolysis (%) ([1]; 2% pooled human erythrocytes, AMPs 100 µM, 60 min 37 °C, 405 nm, pos. 10% Triton X-100, neg. PBS, 3 x 2 replicates): 27.1 ± 2.7%
- Calculated Hemolysis (%) ([1]; 5% pooled human erythrocytes, AMPs 100 µM, 60 min 37 °C, 405 nm, pos. 10% Triton X-100, neg. PBS, 3 x 2 replicates): 22.7 ± 9%
- Calculated hemolysis ratio ([1]; Table 2: pooled blood from all 10 individuals, 1% erythrocytes, AMPs 100 µM, 60 min 37 °C, 405 nm, pos. 10% Triton X, neg. PBS, 3 x 2 replicates): 32.6 ± 7.3%
- Calculated Hemolysis (%) ([1]; Table 3: 1% pooled human erythrocytes, AMPs 100 µM, 60 min 37 °C, 405 nm, pos. 10% Triton X-100, neg. PBS, 3 x 2 replicates): 32.6 ± 7.3%
- Calculated hemolysis ratio ([1]; Table 4: incubation 60 min, 37 °C, 1% human erythrocytes, AMPs 100 µM, 405 nm, pos. 10% Triton X-100, neg. PBS, 3 biological x 2 technical replicates): 37.1 ±14.2%
- Calculated hemolysis ratio ([1]; Table 6: 1% washed human erythrocytes, OD 405 nm, peptides 100 μM, 60 min 37 °C, pos. 10% Triton X-100, neg. PBS, 3 x 2 replicates): 73.9 ± 7.5%
- Calculated hemolysis ratio [1, 5]: 38 ± 12.3%
- Calculated hemolysis ratio [1, 6]: 57.7 ± 12.2%
- Calculated hemolysis ratio [1, 7]: 50.8 ± 8.8%
- Calculated hemolysis ratio [1, 8]: 47.2 ± 5.6%
- Calculated hemolysis ratio [1, 9]: 38.8 ± 12.1%
- Calculated hemolysis ratio [1, 10]: 36.2 ± 10.8%
- Calculated hemolysis ratio [1, 11]: 49.6 ± 15.2%
- Calculated hemolysis ratio [1, 12]: 49.4 ± 16.9%
- Calculated hemolysis ratio [1, 13]: 49.1 ± 22.5%
- Calculated hemolysis ratio [1, 14]: 39.4 ± 10.7%
- Calculated hemolysis ratio ([1]; incubated in polypropylene tubes, 1% washed human erythrocytes, peptides 100 μM, 60 min 37 °C, 405 nm, pos. 10% Triton X-100, neg. PBS, 3 x 2 replicates): 29.5 ± 6%
- Calculated hemolysis ratio ([1]; incubated in polystyrene tubes, 1% washed human erythrocytes, peptides 100 μM, 60 min 37 °C, 405 nm, pos. 10% Triton X-100, neg. PBS, 3 x 2 replicates): 43.1 ± 18.6%
- Calculated hemolysis ratio ([1]; incubation 15 min, 37 °C, 1% human erythrocytes, AMPs 100 µM, 405 nm, pos. 10% Triton X-100, neg. PBS, 3 biological x 2 technical replicates): 32.8 ± 12.1%
- Calculated hemolysis ratio ([1]; incubation 30 min, 37 °C, 1% human erythrocytes, AMPs 100 µM, 405 nm, pos. 10% Triton X-100, neg. PBS, 3 biological x 2 technical replicates): 34.8 ± 12.7%
- Calculated hemolysis ratio ([1]; incubation 90 min, 37 °C, 1% human erythrocytes, AMPs 100 µM, 405 nm, pos. 10% Triton X-100, neg. PBS, 3 biological x 2 technical replicates): 40.1 ±13.9%
- Calculated hemolysis ratio ([1]; incubation 120 min, 37 °C, 1% human erythrocytes, AMPs 100 µM, 405 nm, pos. 10% Triton X-100, neg. PBS, 3 biological x 2 technical replicates): 47 ± 13.6%
- Calculated hemolysis ratio ([1]; total incubation volume 100 μL, 1% washed human erythrocytes, peptides 100 μM, 60 min 37 °C, 405 nm, pos. 10% Triton X-100, neg. PBS, 3 x 2 replicates): 43.1 ± 18.6%
- Calculated hemolysis ratio ([1]; total incubation volume 500 μL, 1% washed human erythrocytes, peptides 100 μM, 60 min 37 °C, 405 nm, pos. 10% Triton X-100, neg. PBS, 3 x 2 replicates): 31.4 ± 10.7%
- Calculated hemolysis ratio (human whole blood; [15]): 98.2 ± 0.4%
- Calculated hemolysis ratio (human whole blood; OD 530 nm, pos. 10% SDS): 38.4 ± 8.5%
- Calculated hemolysis ratio (human whole blood; [16]): 62.8 ± 1.4%
- Fluorescence intensity per cell of remaining intact cells (live/dead stain) [2]: low fluorescence

Compound: MNLVDRAILIRKRRRAALQLRDKVLRYLK-NH2 [AMP 1]
- Minimum inhibitory concentration (E. coli) (E. coli): 2 µM
- Fold difference in HR at 120 min incubation relative to the shortest incubation times ([1]; 1% washed human erythrocytes, 405 nm, Table 4): 1.65 fold
- Calculated hemolysis ratio [1, 5]: 21.9 ± 4%
- Calculated hemolysis ratio [1, 6]: 23 ± 2.8%
- Calculated hemolysis ratio [1, 7]: 23.7 ± 2.1%
- Calculated hemolysis ratio [1, 8]: 21.3 ± 3%
- Calculated hemolysis ratio [1, 9]: 19.7 ± 3.7%
- Calculated hemolysis ratio [1, 10]: 19.6 ± 4.7%
- Calculated hemolysis ratio [1, 11]: 18.8 ± 4%
- Calculated hemolysis ratio [1, 12]: 21.7 ± 8.6%
- Calculated hemolysis ratio [1, 13]: 22.9 ± 6.8%
- Calculated hemolysis ratio [1, 14]: 25.1 ± 13%
- Observed hemolytic properties (qualitative) ([1]; reason for choice of the AMPs): medium
- HR in mouse sample compared to rabbit sample (mouse erythrocytes): over four times higher
- Hemolysis ratio (rat erythrocytes): 12.9 +/- 1.7%
- Hemolysis ratio (rabbit erythrocytes): 7.1 +/- 1.1%
- Fold decrease of hemolytic effect in rabbit whole blood vs washed rabbit erythrocytes (rabbit whole blood): slightly increased hemolytic effect

Compound: Polymyxin B [PMB, reference compound]
- Cytotoxicity (qualitative) [3]: low
- Calculated hemolysis ratio (human whole blood; [15]): 3.1 ± 1.1%
- Calculated hemolysis ratio (human whole blood; OD 530 nm, pos. 10% SDS): 3 ± 2.4%
- Calculated hemolysis ratio (human whole blood; [16]): 4.5 ± 1.8%

Compound: Tween-20 [reference compound]
- Blood clotting in whole blood (human whole blood; melittin 100 μM): tendency of the blood to clot at higher Tween concentrations
